From US12171806B2, “Therapeutic regimens and methods for lowering blood glucose and/or body weight using GLP-1R and GCGR balanced agonists” (priority 2021, dated 2024)

Columns and labels:
[1] = in 6 weeks; cited from earlier work
[2] = over 26 weeks; cited from earlier work
[3] = biological target: T1, glucagon (human, cloned into CHO cells) receptor (Homo sapiens, UniProt P47871); test: cAMP stimulation cellular assay (DiscoveRx LeadHunter), glucagon receptor; assay type: cell-based; conditions: 0.1% BSA
T1 construct: host or cells: CHO cells
T1 sequence (P47871 26-477): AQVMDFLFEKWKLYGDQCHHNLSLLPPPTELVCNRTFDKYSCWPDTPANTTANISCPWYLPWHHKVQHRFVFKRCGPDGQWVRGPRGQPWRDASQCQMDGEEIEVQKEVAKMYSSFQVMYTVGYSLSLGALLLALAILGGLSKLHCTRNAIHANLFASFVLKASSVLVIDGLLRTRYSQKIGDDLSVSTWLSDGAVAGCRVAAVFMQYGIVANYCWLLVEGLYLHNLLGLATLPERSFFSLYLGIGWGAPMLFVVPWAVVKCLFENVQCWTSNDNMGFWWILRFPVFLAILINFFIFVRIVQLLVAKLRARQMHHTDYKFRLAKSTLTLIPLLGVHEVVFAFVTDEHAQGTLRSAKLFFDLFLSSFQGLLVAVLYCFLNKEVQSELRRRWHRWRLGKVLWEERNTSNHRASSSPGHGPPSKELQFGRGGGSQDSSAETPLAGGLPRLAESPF

Structure (SMILES)	reduction in liver fat content / hepatic fat fraction [1] [%]	weight loss [2] [%]	EC50 [3] [nM]
CCCCCCCCCCCCCCCC(=O)N[C@@H](CCC(=O)NCCCC[C@H](NC(=O)[C@H](CC(=O)O)NC(=O)[C@H](CO)NC(=O)[C@@H](NC(=O)[C@H](Cc1ccccc1)NC(=O)[C@@H](NC(=O)CNC(=O)[C@H](CCC(N)=O)NC(=O)[C@H](CO)NC(=O)[C@@H](N)Cc1c[nH]cn1)[C@@H](C)O)[C@@H](C)O)C(=O)N[C@@H](CO)C(=O)N[C@@H](CCC(=O)O)C(=O)N[C@@H](Cc1ccc(O)cc1)C(=O)N[C@@H](CC(C)C)C(=O)N[C@@H](CC(=O)O)C(=O)N[C@@H](CO)C(=O)N[C@@H](CCC(=O)O)C(=O)N[C@@H](CCCNC(=N)N)C(=O)N[C@@H](C)C(=O)N[C@@H](CCCNC(=N)N)C(=O)N[C@@H](CC(=O)O)C(=O)N[C@@H](Cc1ccccc1)C(=O)N[C@H](C(=O)N[C@@H](C)C(=O)N[C@@H](Cc1c[nH]c2ccccc12)C(=O)N[C@@H](CC(C)C)C(=O)N[C@@H](CCC(=O)O)C(=O)N[C@@H](C)C(=O)NCC(=O)NCC(=O)O)C(C)C)C(=O)O [cotadutide]	39	5.4	–
CC[C@H](C)[C@H](NC(=O)[C@H](Cc1ccccc1)NC(=O)[C@H](CCC(=O)O)NC(=O)[C@@H]1CCCCNC(=O)CC[C@H](NC(=O)[C@H](CC(=O)O)NC(=O)[C@H](CC(C)C)NC(=O)[C@H](Cc2ccc(O)cc2)NC(=O)[C@H](CCCCN)NC(=O)[C@H](CO)NC(=O)[C@H](Cc2ccc(O)cc2)NC(=O)[C@H](CC(=O)O)NC(=O)[C@H](CO)NC(=O)[C@@H](NC(=O)[C@H](Cc2ccccc2)NC(=O)[C@@H](NC(=O)CNC(=O)[C@H](CCC(N)=O)NC(=O)C(C)(C)NC(=O)[C@@H](N)Cc2c[nH]cn2)[C@@H](C)O)[C@@H](C)O)C(=O)N[C@@H](CCC(N)=O)C(=O)N[C@@H](C)C(=O)N[C@@H](C)C(=O)N1)C(=O)N[C@@H](CCCCNC(=O)[C@H]1O[C@@H](OCCCCCCCCCCCCCCCCCC(=O)O)[C@H](O)[C@@H](O)[C@@H]1O)C(=O)N[C@@H](Cc1c[nH]c2ccccc12)C(=O)N[C@@H](CC(C)C)C(=O)N[C@@H](CC(C)C)C(=O)N[C@@H](CCC(N)=O)C(=O)N[C@H](C(N)=O)[C@@H](C)O [EU-A1872]	–	–	2.62
